Where “and” joins values, the source holds several entries; their conditions need not be identical. Equal values may be shown once. Read-outs that look alike come from different tables or passages of the source.
Molecular target: T1, human Kv3.1 channels (hKv3.1) (Homo sapiens, UniProt P48547)
T1 sequence (P48547 1-501 limits assumed): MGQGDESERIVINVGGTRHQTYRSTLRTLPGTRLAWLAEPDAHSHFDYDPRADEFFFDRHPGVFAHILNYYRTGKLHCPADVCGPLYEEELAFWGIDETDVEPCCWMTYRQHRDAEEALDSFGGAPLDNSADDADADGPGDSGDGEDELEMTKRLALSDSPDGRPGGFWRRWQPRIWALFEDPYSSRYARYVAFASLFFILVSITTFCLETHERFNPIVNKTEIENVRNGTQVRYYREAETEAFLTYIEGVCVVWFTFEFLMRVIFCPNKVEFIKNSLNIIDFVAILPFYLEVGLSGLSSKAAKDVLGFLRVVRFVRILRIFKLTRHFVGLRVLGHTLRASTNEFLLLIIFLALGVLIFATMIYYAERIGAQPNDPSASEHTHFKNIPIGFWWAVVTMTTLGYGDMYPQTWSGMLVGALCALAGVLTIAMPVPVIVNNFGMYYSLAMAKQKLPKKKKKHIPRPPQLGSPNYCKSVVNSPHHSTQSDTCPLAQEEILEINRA
Assay: Measurement of Kv3 channel modulation: Kv3.1 assay (IonWorks Quattro whole-cell electrophysiology)
Format: cell-based
Settings: for Kv3.1 max R %: normalised to maximum effect of reference compound (50 microM)
Method: The ability of the compounds of the invention to modulate the voltage-gated potassium channel subtypes Kv3.4/Kv3.3/Kv3.2/Kv3.1 may be determined using the following assay. Analogous methods may be used to investigate the ability of the compounds of the invention to modulate other channel subtypes.
Human embryonic kidney (HEK)-hKv3.1 cell line is generated by transfecting HEK-293 cells with an expression vector with human Kv3.1 (NM_004976.4). Cells are cultured with MEM supplemented with 10% Heat-Inactivated FBS, 2 mM L-glutamine, 1% Penicillin-Streptomycin, and 0.6 mg/ml of Geneticin (G418). HEK-hKv3.1b cells were amplified in T175 cm2 flask at 37° C. with 5% CO2, using MEM amplification medium, containing the G418 selection antibiotic (0.6 mg/ml). Cells were detached every 3-4 days, using DPBS to wash twice the flask, then TrypLE to dislodge the cells, and re-plated at a density of 2-4×10^6 cells/flask.
The day of the experiment, cells are removed from the incubator and the culture medium removed. Cells are washed with 5 ml of Dulbecco's PBS (DPBS) calcium and magnesium free and detached by the addition of 3 ml Versene (Invitrogen, Italy) followed by a brief incubation at 37° C. for 5 minutes. The flask is tapped to dislodge cells and 10 ml of DPBS containing calcium and magnesium is added to prepare a cell suspension. The cell suspension is then placed into a 15 ml centrifuge tube and centrifuged for 2 min at 1200 rpm. After centrifugation, the supernatant is removed and the cell pellet re-suspended in 4 ml of DPBS containing calcium and magnesium using a 5 ml pipette to break up the pellet. Cell suspension volume is then corrected to give a cell concentration for the assay of approximately 3 million cells per ml.
Experiments are conducted at r.t. using IonWorks Quattro™ planar array electrophysiology technology (Molecular Devices Corp.) with PatchPlate™ PPC. Stimulation protocols and data acquisition are carried out using a microcomputer (Dell Pentium 4). Planar electrode hole resistances (Rp) are determined by applying a 10 mV voltage step across each well. These measurements are performed before cell addition. After cell addition and seal formation, a seal test is performed by applying a voltage step from −80 mV to −70 mV for 160 ms. Following this, amphotericin-B solution is added to the intracellular face of the electrode to achieve intracellular access. Cells are held at −70 mV. Leak subtraction is conducted in all experiments by applying 50 ms hyperpolarizing (10 mV) prepulses to evoke leak currents followed by a 20 ms period at the holding potential before test pulses.
For hKv3.2 and hKv3.1, assays from the holding potential of −70 mV, a first test pulse at −15 mV was applied for 100 ms and after 100 ms at −70 mV a second pulse at +40 mV was applied for 50 ms. Cells were then maintained for 100 ms at −100 mV and another pulse from […] to +40 mV (duration 50 ms) was applied to clamp later the voltage at −40 mV during 200 ms
The intracellular solution contains the following (in mM): K-gluconate 100, KCl 54, MgCl2 3.2, HEPES 5, adjusted to pH 7.3 with KOH. Amphotericin-B solution is prepared as 50 mg/ml stock solution in DMSO and diluted to a final working concentration of 0.1 mg/ml in intracellular solution.
Compounds of use in the invention (or reference compounds such as N-cyclohexyl-N-[(7,8-dimethyl-2-oxo-1,2-dihydro-3-quinolinyl)methyl]-N′-phenylurea) are dissolved in dimethylsulfoxide (DMSO) at a stock concentration of 10 mM. […] Each dilution (1 μL) is transferred to another compound plate and external solution containing 0.05% pluronic acid (66 μL) is added. 3.5 μL from each plate containing a compound of the invention is added and incubated with the cells during the IonWorks Quattro™ experiment. The final assay dilution is 200 and the final compound concentrations are in the range 50 μM to 50 nM.

[1] = Table 2, Example compounds, rounded to one decimal place, some compounds with two data sets (n given in cell), read-out: Kv3.1 pEC50 (converted)
[2] = Table 1, Reference Examples, current at -15 mV step, normalised to 50 microM reference compound, read-out: Kv3.1 pEC50 (converted)
[3] = Table 3, Reference Examples and corresponding Examples, rounded to one decimal place, read-out: Kv3.1 pEC50 (converted)

Compound: COc1cccc(Oc2ccc(-n3c(=O)[nH]c4cnc(C)nc43)cn2)c1 [Example 28, 9-[6-(3-methoxyphenoxy)-3-pyridyl]-2-methyl-7H-purin-8-one]
- Kv3.1 max R % (Table 2, Example compounds): 140%
- EC50 [1]: 3980 nM

Compound: Cc1ccc(Oc2ccc(-n3c(=O)[nH]c4cncnc43)cn2)c2c1OCC21CC1 [Example 29, 9-[6-(7-methylspiro[2H-benzofuran-3,1′-cyclopropane]-4-yl)oxy-3-pyridyl]-7H-purin-8-one]
- Kv3.1 max R % (Table 2, Example compounds): 117%
- EC50 [1]: 158 nM

Compound: Cc1ncc2[nH]c(=O)n(-c3ccc(Oc4cccc5c4C(C)(C)CO5)nc3)c2n1 [Example 30, 9-[6-[(3,3-dimethyl-2H-benzofuran-4-yl)oxy]-3-pyridyl]-2-methyl-7H-purin-8-one]
- Kv3.1 max R % (Table 2, Example compounds): 123%
- EC50 [1]: 126 nM

Compound: Cc1ccc(Oc2ncc(-n3c(=O)[nH]c4cccnc43)cn2)c2c1OCC21CC1 [Example 31, 3-[2-(7-methylspiro[2H-benzofuran-3,1′-cyclopropane]-4-yl)oxypyrimidin-5-yl]-1H-imidazo[4,5-b]pyridine-2-one]
- Kv3.1 max R % (Table 2, Example compounds): 217%
- EC50 [1]: 200 nM

Compound: O=c1[nH]c2c[nH]nc2n1-c1ccc(Oc2cccc3c2C2(CC2)CO3)nc1 [Example 34, 6-(6-spiro[2H-benzofuran-3,1′-cyclopropane]-4-yloxy-3-pyridyl)-2,4-dihydroimidazo[4,5-c]pyrazol-5-one]
- Kv3.1 max R % (Table 2, Example compounds): 128% and 131%
- Kv3.1 pEC50 (Table 2, Example compounds, rounded to one decimal place, some compounds with two data sets (n given in cell)): 5.0 (n = 2)
- EC50 [1]: 10000 nM

Compound: Cc1ccc(Oc2ccc(-n3c(=O)[nH]c4ccncc43)cn2)c2c1OCC21CC1 [Example 35, 3-[6-(7-methylspiro[2H-benzofuran-3,1′-cyclopropane]-4-yl)oxy-3-pyridyl]-1H-imidazo[4,5-c]pyridin-2-one]
- Kv3.1 max R % (Table 2, Example compounds): 225%
- EC50 [1]: 1000 nM

Compound: O=c1[nH]c2ncccc2n1-c1ccc(Oc2cccc3c2C2(CC2)CO3)nc1 [Example 36, 1-(6-spiro[2H-benzofuran-3,1′-cyclopropane]-4-yloxy-3-pyridyl)-3H-imidazo[4,5-b]pyridin-2-one]
- EC50 (Kv3.1 pEC50, Table 2, Example compounds, rounded to one decimal place, some compounds with two data sets (n given in cell)): 631 nM
- EC50 (Kv3.1 pEC50, Table 3, Reference Examples and corresponding Examples, rounded to one decimal place): 631 nM
- Kv3.1 max R % (Table 2, Example compounds): 113%

Compound: Cc1ccc2[nH]c(=O)n(-c3cnc(Oc4cccc5c4C4(CC4)CO5)cn3)c2n1 [Example 37, 5-methyl-3-(5-spiro[2H-benzofuran-3,1′-cyclopropane]-4-yloxypyrazin-2-yl)-1H-imidazo[4,5-b]pyridin-2-one]
- Kv3.1 max R % (Table 2, Example compounds): 124%
- EC50 [1]: 126 nM

Compound: Cc1cnc2c(c1)[nH]c(=O)n2-c1cnc(Oc2cccc3c2C2(CC2)CO3)cn1 [Example 38, 6-methyl-3-(5-spiro[2H-benzofuran-3,1′-cyclopropane]-4-yloxypyrazin-2-yl)-1H-imidazo[4,5-b]pyridin-2-one]
- Kv3.1 max R % (Table 2, Example compounds): 122%
- EC50 [1]: 200 nM

Compound: Cc1ccc(Oc2ncc(-n3c(=O)[nH]c4cccnc43)cn2)c2c1OCC2(C)C [Example 39, 3-[2-[(3,3,7-trimethyl-2H-benzofuran-4-yl)oxy]pyrimidin-5-yl]-1H-imidazo[4,5-b]pyridin-2-one]
- Kv3.1 max R % (Table 2, Example compounds): 215%
- EC50 [1]: 1580 nM

Compound: CC[C@H]1NC(=O)N(c2ccc(Oc3ccc(C)c4c3C3(CC3)CO4)nc2)C1=O [RE1, reference compound]
- Kv3.1 max R % (Table 1, Reference Examples): 157%

Compound: CC[C@@H]1CN(c2ccc(Oc3ccc(C)c4c3C3(CC3)CO4)nc2)C(=O)N1 [RE2, reference compound]
- EC50 [2]: 20000 nM
- Kv3.1 max R % (Table 1, Reference Examples): 92%

Compound: Cc1ccc(Oc2ccc(N3C(=O)NC4COCC43)cn2)c2c1OCC21CC1 (stereo not drawn) [RE3, reference compound]
- EC50 [2]: > 50100 nM
- Kv3.1 max R % (Table 1, Reference Examples): 30%

Compound: Cc1ccc(Oc2ncc(N3C(=O)NC(C)(C)C3=O)cn2)c2c1OCC21CC1 [RE4, reference compound]
- Kv3.1 max R % (Table 1, Reference Examples): 158%

Compound: Cc1ccc(Oc2ccc(N3C(=O)CC(C)(C)NC3=O)cn2)c2c1OCC21CC1 [RE5, reference compound]
- EC50 [2]: 11200 nM
- Kv3.1 max R % (Table 1, Reference Examples): 90%

Compound: Cc1ccc(Oc2ccc(N3C(=O)NCC(C)(C)C3=O)cn2)c2c1OCC21CC1 [RE6, reference compound]
- EC50 [2]: 25100 nM
- Kv3.1 max R % (Table 1, Reference Examples): 111%

Compound: Cc1ccc(Oc2ccc(N3CCNC3=O)cn2)c2c1OCC21CC1 [RE7, reference compound]
- EC50 [2]: 39800 nM
- Kv3.1 max R % (Table 1, Reference Examples): 29%

Compound: Cc1ccc(Oc2ccc(N3C(=O)CCNC3=O)cn2)c2c1OCC21CC1 [RE8, reference compound]
- EC50 [2]: 25100 nM
- Kv3.1 max R % (Table 1, Reference Examples): 140%

Compound: CC1(C)COc2cccc(Oc3ncc(-n4c(=O)[nH]c5cnccc54)cn3)c21 [RE9, reference compound]
- EC50 [3]: > 50100 nM

Compound: O=c1[nH]c2cnccc2n1-c1ccc(Oc2cccc(OC(F)(F)F)c2)nc1 [RE10, reference compound]
- EC50 [3]: 2510 nM

Compound: Cc1ccc(Oc2ccc(N3C(=O)NCc4cccnc43)cn2)c2c1OCC21CC1 [RE11, reference compound]
- EC50 [3]: 2000 nM

Source: patent publication US20240327406A1, “POTASSIUM CHANNEL MODULATORS” (Autifony Therapeutics Limited, priority 2021, published 2024)
